Data from PubChem BioAssay AID2060346 (Molecular Pharmacology Branch, DTP, NCI, 2025).
Where “and” joins values, the source holds several entries; their conditions need not be identical. Identical values can stand only once. Calls of active or inactive are those of the source. How the source made its calls: active means viability on the fitted dose curve at most 10% of control; inactive means the rest.

System: CN0375-F725-PDC multi-cell spheroids, viability
Test: Anticancer human tumor CN0375-F725-PDC patient-derived colon carcinoma cell line growth inhibition [TAK]
Details: for viability, T/C: stronger effect = lower value
Source text: Combinatorial screen of targeted agents with TAK-243 and ipatasertib in multi-cell type tumor spheroids
A high-throughput screen of multi-cell type tumor spheroids was designed to identify active combinations of targeted small molecules and TAK-243 or ipatasertib. Complex spheroids include a stromal component modeled by human endothelial cells (HUVEC) and fibroblasts modeled by human mesenchymal stem cells (MSCs). The concentration ranges selected for each drug and investigational agent were based upon clinically achievable concentrations if the clinical Cmax of the agent was known.
Compounds. The drugs and investigational agents: TAK-243 (785004), ipatasertib (767898), everolimus (733504), selumetinib (741078), bortezomib (756655), trametinib (758246), ixazomib (758254), vemurafenib (761431), dabrafenib (764134), sapanisertib (764658), alpelisib (765974), and copanlisib (816437), were obtained from the National Cancer Institute (NCI) Developmental Therapeutics Program Chemical Repository. The FDA-approved anticancer drug set is available from the NCI Developmental Therapeutics Program. […] The stock solutions were prepared in dimethyl sulfoxide (DMSO, Sigma-Aldrich, St. Louis, MO, cat. D2650) at 800-fold the tested concentration and stored at -70 degrees C prior to their use. All drugs and investigational agents were tested over a range starting from a high concentration at or near the clinical Cmax and decreasing in half-log increments. If the clinical Cmax for an agent had not been determined, the highest concentration tested was 10 microM.
NCI60 Cell Culture. NCI60 cell lines were obtained from the NCI Developmental Therapeutics Program Tumor Repository. For each lot of cells, the Repository performed Applied Biosystems AmpFLSTR Identifiler testing with PCR amplification to confirm consistency with the published Identifier STR profile for each cell line. Cells were kept in continuous culture for no more than 20 passages. The optimal seeding densities for each of the cell lines at each time point assessed were determined prior to performing the concentration response studies. Briefly, the NCI60 human tumor lines were grown as monolayers in RPMI 1640 medium supplemented with 10% FBS and 2 mmol/L L-glutamine.
An additional 2 lines were from the NCI60 cell line panel including melanomas, MALME-3M and SK-MEL-2. Pooled donor human umbilical vein endothelial cells (HUVEC, Lonza, cat. CC-2519) and human mesenchymal stem cells (hMSC, Lonza, cat. PT-2501) were purchased from Lonza (Walkersville, MD).
PDMR cell lines were grown in complete medium (DC medium): Dulbecco's modified Eagle's medium (DMEM)/F12 supplemented with 5% fetal bovine serum (FBS), 2 mM L-glutamine, 100 U/mL penicillin and 100 µg/ml streptomycin, 0.4 µg/ml hydrocortisone, 10 ng/ml epidermal growth factor (EGF) recombinant human protein, 24 µg/mL adenine, and 0.1 mg/mL primocin. During culture from frozen stock vials, PDMR cells were cultured in the same medium containing 10 µM Y-27632 (see Table 3). The PDCs were cultured in complete DMEM/F12 media without 10 microM Y-27632 dihydrochloride for at least two passages prior to the screen. The pooled donor HUVEC and hMSC were cultured in endothelial cell growth medium 2 (PromoCell, Heidelberg, Germany, cat. C-22011) and mesenchymal stem cell growth medium 2 (PromoCell, cat. C-28009), respectively. For all experiments, HUVEC and hMSC were used at passages </=5.
For the pre-screen, cell seeding densities were determined from a titration spanning the range from 5,000 to 313 cells per well. The mct-spheroids including 60% malignant cells, 25% HUVEC and 15% MSC dispensed as a mixture into U-bottom Ultra-Low Attachment 384-well plates (Corning, NY)
High-throughput Drug Combination Screening.
Prior to their inoculation into 384-well plates, malignant cells, HUVEC, and hMSC were removed from T flasks using TrypLE express (Thermo Fisher Scientific, cat. 12605036) and harvested by centrifugation for 5 min at 233 x g. […]

[1] = curve of first compound, second compound 0.3 µM
[2] = curve of first compound, second compound 0.949 µM
[3] = curve of first compound, second compound 3 µM
[4] = curve of first compound, second compound 9.49 µM
[5] = curve of first compound, second compound 30 µM
[6] = second compound 0.3 µM, first compound 0.000316 µM
[7] = second compound 0.3 µM, first compound 0.001 µM
[8] = second compound 0.3 µM, first compound 0.00316 µM
[9] = second compound 0.3 µM, first compound 0.01 µM
[10] = second compound 0.949 µM, first compound 0.000316 µM
[11] = second compound 0.949 µM, first compound 0.001 µM
[12] = second compound 0.949 µM, first compound 0.00316 µM
[13] = second compound 0.949 µM, first compound 0.01 µM
[14] = second compound 3 µM, first compound 0.000316 µM
[15] = second compound 3 µM, first compound 0.001 µM
[16] = second compound 3 µM, first compound 0.00316 µM
[17] = second compound 3 µM, first compound 0.01 µM
[18] = second compound 9.49 µM, first compound 0.000316 µM
[19] = second compound 9.49 µM, first compound 0.001 µM
[20] = second compound 9.49 µM, first compound 0.00316 µM
[21] = second compound 9.49 µM, first compound 0.01 µM
[22] = second compound 30 µM, first compound 0.000316 µM
[23] = second compound 30 µM, first compound 0.001 µM
[24] = second compound 30 µM, first compound 0.00316 µM
[25] = second compound 30 µM, first compound 0.01 µM
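Wherever IC50 is given: spheroids exposed to drugs for seven days.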
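Wherever viability, T/C is given: spheroids exposed to drugs for seven days.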

Q: With `CC(C)CC(NC(=O)C(Cc1ccccc1)NC(=O)c1cnccn1)B(O)O` (stereo unspecified) + CC(C)NCC(C(=O)N1CCN(c2ncnc3c2C(C)CC3O)CC1)c1ccc(Cl)cc1 as the compound, how does the IC50 [1] read?
A: The IC50 was 7.39 nM.

Q: And the IC50 [2]?
A: Its IC50 is 7.9 nM.

Q: What about the IC50 [3] of the same compound?
A: The IC50 was 7.86 nM.

Q: And the IC50 [4]?
A: Its IC50 is 5.85 nM.

Q: What about the IC50 [5] of the same compound?
A: Its IC50 is 2.49 nM.

Q: And the viability, T/C (second compound 0.3 µM, first compound 31.6 pM)?
A: Its viability, T/C is 100%.

Q: What about the viability, T/C (second compound 0.3 µM, first compound 0.0001 µM) of the same compound?
A: The viability, T/C was 99%.

Q: And the viability, T/C [6]?
A: The viability, T/C was 93.6%.

Q: And the viability, T/C [7]?
A: The viability, T/C was 99.5%.

Q: And the viability, T/C [8]?
A: The viability, T/C was 92.1%.

Q: And the viability, T/C [9]?
A: The viability, T/C was 34.9%.

Q: What about the viability, T/C (second compound 0.949 µM, first compound 31.6 pM) of the same compound?
A: Its viability, T/C is 99.6%.

Q: And the viability, T/C (second compound 0.949 µM, first compound 0.0001 µM)?
A: The viability, T/C was 101%.

Q: And the outcome [10]?
A: Its outcome is “inactive”.

Q: What about the viability, T/C [11] of the same compound?
A: The viability, T/C was 90.3%.

Q: And the viability, T/C [12]?
A: Its viability, T/C is 93%.

Q: And the viability, T/C [13]?
A: The viability, T/C was 38.8%.

Q: And the viability, T/C (second compound 3 µM, first compound 31.6 pM)?
A: The viability, T/C was 89.3%.

Q: What about the viability, T/C (second compound 3 µM, first compound 0.0001 µM) of the same compound?
A: Its viability, T/C is 93%.

Q: And the viability, T/C [14]?
A: Its viability, T/C is 91.8%.

Q: And the viability, T/C [15]?
A: Its viability, T/C is 93.1%.

Q: And the viability, T/C [16]?
A: The viability, T/C was 82.8%.

Q: And the viability, T/C [17]?
A: The viability, T/C was 41.2%.

Q: And the viability, T/C (second compound 9.49 µM, first compound 31.6 pM)?
A: Its viability, T/C is 85.2%.

Q: And the viability, T/C (second compound 9.49 µM, first compound 0.0001 µM)?
A: The viability, T/C was 95.3%.

Q: What about the viability, T/C [18] of the same compound?
A: The viability, T/C was 87.2%.

Q: And the viability, T/C [19]?
A: The viability, T/C was 93.6%.

Q: And the viability, T/C [20]?
A: Its viability, T/C is 76.7%.

Q: What about the viability, T/C [21] of the same compound?
A: The viability, T/C was 26.6%.

Q: What about the viability, T/C (second compound 30 µM, first compound 31.6 pM) of the same compound?
A: Its viability, T/C is 72.3%.

Q: And the viability, T/C (second compound 30 µM, first compound 0.0001 µM)?
A: The viability, T/C was 86.8%.

Q: And the viability, T/C [22]?
A: The viability, T/C was 84.4%.

Q: What about the viability, T/C [23] of the same compound?
A: Its viability, T/C is 76.6%.

Q: What about the viability, T/C [24] of the same compound?
A: Its viability, T/C is 42.9%.

Q: What about the viability, T/C [25] of the same compound?
A: The viability, T/C was 9.84%.

Q: `COC1CC2CCC(C)C(O)(O2)C(=O)C(=O)N2CCCCC2C(=O)OC(C(C)CC2CCC(OCCO)C(OC)C2)CC(=O)C(C)C=C(C)C(O)C(OC)C(=O)C(C)CC(C)C=CC=CC=C1C` (stereo unspecified) was tested. Which viability, T/C (compound 0.000316 µM) did it give?
A: Its viability, T/C is 108% and 127%.

Q: What about the viability, T/C (compound 0.001 µM) of the same compound?
A: The viability, T/C was 103% and 118%.

Q: What about the viability, T/C (compound 0.00316 µM) of the same compound?
A: Its viability, T/C is 90.9% and 96.7%.

Q: And the viability, T/C (compound 0.01 µM)?
A: The viability, T/C was 88.1% and 93.2%.

Q: What about the viability, T/C (compound 0.0316 µM) of the same compound?
A: Its viability, T/C is 84.9% and 77.9%.

Q: What about the viability, T/C (compound 0.1 µM) of the same compound?
A: Its viability, T/C is 83.9% and 82.5%.

Q: What about the IC50 (curve of compound) of the same compound?
A: Its IC50 is > 100 nM.

Q: What does the source list for `CC(C)CC(NC(=O)C(Cc1ccccc1)NC(=O)c1cnccn1)B(O)O` (stereo unspecified)?
A: viability, T/C (compound 31.6 pM): 112% and 110%; viability, T/C (compound 0.0001 µM): 98.7% and 113%; viability, T/C (compound 0.000316 µM): 104% and 103%; viability, T/C (compound 0.001 µM): 109% and 105%; viability, T/C (compound 0.00316 µM): 103% and 106%; viability, T/C (compound 0.01 µM): 34.9% and 35.3%; IC50 (curve of compound): 7.76 nM and 7.87 nM

Q: What does the source list for `COc1c(OCCCN2CCOCC2)ccc2c3n(c(=NC(=O)c4cnc(N)nc4)nc12)CCN3`?
A: viability, T/C (compound 0.00316 µM): 96.6% and 99.3%; viability, T/C (compound 0.01 µM): 89.4% and 83.8%; viability, T/C (compound 0.0316 µM): 78.5% and 68.5%; viability, T/C (compound 0.1 µM): 63.8% and 55.3%; viability, T/C (compound 0.316 µM): 42.5% and 39.9%; viability, T/C (compound 1 µM): 34.6% and 29.2%; IC50 (curve of compound): 220 nM and 144 nM

Q: What does the source list for `COC1CC2CCC(C)C(O)(O2)C(=O)C(=O)N2CCCCC2C(=O)OC(C(C)CC2CCC(OCCO)C(OC)C2)CC(=O)C(C)C=C(C)C(O)C(OC)C(=O)C(C)CC(C)C=CC=CC=C1C` (stereo unspecified) + CC(C)NCC(C(=O)N1CCN(c2ncnc3c2C(C)CC3O)CC1)c1ccc(Cl)cc1?
A: IC50 [1]: > 100 nM; IC50 [2]: > 100 nM; IC50 [3]: > 100 nM; IC50 [4]: > 100 nM; IC50 [5]: > 100 nM; viability, T/C [6]: 97.5%; viability, T/C [7]: 95.1%; viability, T/C [8]: 89.1%; viability, T/C [9]: 82.5%; viability, T/C (second compound 0.3 µM, first compound 0.0316 µM): 81.1%; viability, T/C (second compound 0.3 µM, first compound 0.1 µM): 81.1%; viability, T/C [10]: 99%; viability, T/C [11]: 94.8%; viability, T/C [12]: 84.5%; viability, T/C [13]: 81.1%; viability, T/C (second compound 0.949 µM, first compound 0.0316 µM): 78.3%; viability, T/C (second compound 0.949 µM, first compound 0.1 µM): 78.2%; viability, T/C [14]: 88.7%; viability, T/C [15]: 83.9%; viability, T/C [16]: 83.9%; viability, T/C [17]: 77.8%; viability, T/C (second compound 3 µM, first compound 0.0316 µM): 77.4%; viability, T/C (second compound 3 µM, first compound 0.1 µM): 75.9%; viability, T/C [18]: 83.3%; viability, T/C [19]: 84.1%; viability, T/C [20]: 80.7%; viability, T/C [21]: 71.1%; viability, T/C (second compound 9.49 µM, first compound 0.0316 µM): 76%; viability, T/C (second compound 9.49 µM, first compound 0.1 µM): 71%; viability, T/C [22]: 71.3%; viability, T/C [23]: 76.8%; viability, T/C [24]: 72.2%; viability, T/C [25]: 63.5%; viability, T/C (second compound 30 µM, first compound 0.0316 µM): 75.8%; viability, T/C (second compound 30 µM, first compound 0.1 µM): 68.5%
